The record followed here is patent US10323000B2, “Indole derivatives and their use in neurodegenerative diseases” (priority 2014, dated 2019).

One assay concerns the target human P2X7 receptor (Homo sapiens (Human), UniProt Q99572). The assay can be described thus: Pore permeation assay (YO PRO dye uptake). It is filed as cell-based.
Assay [1] deals with P2X7 (IL-1β release from THP-1 cells) (Homo sapiens (Human), UniProt Q99572). The assay can be described thus: IL-1β release assay. It counts as cell-based. As for the experimental part:
IL-1β release assay: The activation of P2X7 by ATP leads to a fast transient activation of cells resulting in influx of Ca^2+ followed by conversion of pro-IL-1β to active IL-1β. The functional activity of P2X7 compounds was measured by the release of mature […] in the culture medium of THP-1 cells, detected by sandwich ELISA. […] THP-1 cells were harvested from the flask in 50 ml by centrifugation for 3 min at 100 g. The cells were resuspended to 2×10^5 cells/ml in medium supplemented with 0.5 μM PMA and incubated. The cells were washed and resuspended to 1.5×10^5 cells/ml in medium complemented with 10 ng/ml LPS, and the cells were primed for 4 h at 37° C., 5% CO2. After addition of 20 μL of prediluted test compounds, blank, standard and control reagents, cells were incubated for a further 20 min at 37° C. and stimulated with 0.8 mM BzATP for 30 minutes. The cells were centrifuged, supernatant was collected and the presence of mature IL-1β was detected using Dual human IL-1b kit following manufacturer's instruction. The tetrahydrobenzodiazepine analogs effectively modulated the activity of P2X7 in the cells as measured by the levels of pro-inflammatory cytokine IL-1β, which is released by the activation of P2X7 receptor.

The mark [2] stands for this setting: HEK293 transfected with human P2X7, BzATP 10 uM, YO PRO dye uptake, read-out: hP2X7 IC50.
Setting [3] is: THP-1 cells, LPS primed, 0.8 mM BzATP, mature IL-1β by sandwich ELISA, read-out: hTHP-1/IL-ib IC50.

Where two headings read alike, the source gives them in different places.

Sequence of human P2X7 receptor (Q99572 whole entry): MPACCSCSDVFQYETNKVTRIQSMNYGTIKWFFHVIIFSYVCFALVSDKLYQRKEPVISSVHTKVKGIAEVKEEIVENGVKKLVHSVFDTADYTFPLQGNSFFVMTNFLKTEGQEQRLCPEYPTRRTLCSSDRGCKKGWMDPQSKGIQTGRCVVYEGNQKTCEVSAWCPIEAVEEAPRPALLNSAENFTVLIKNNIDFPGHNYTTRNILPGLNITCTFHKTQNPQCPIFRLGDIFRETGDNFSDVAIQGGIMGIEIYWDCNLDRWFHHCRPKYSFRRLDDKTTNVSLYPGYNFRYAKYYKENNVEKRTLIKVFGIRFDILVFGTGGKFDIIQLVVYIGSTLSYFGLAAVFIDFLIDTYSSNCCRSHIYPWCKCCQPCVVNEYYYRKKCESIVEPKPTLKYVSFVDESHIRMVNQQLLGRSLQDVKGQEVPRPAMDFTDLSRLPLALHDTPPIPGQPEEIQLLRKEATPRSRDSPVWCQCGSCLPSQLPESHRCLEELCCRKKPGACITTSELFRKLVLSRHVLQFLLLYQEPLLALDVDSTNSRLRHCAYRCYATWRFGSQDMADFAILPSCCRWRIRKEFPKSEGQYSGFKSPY
Sequence of P2X7 (IL-1β release from THP-1 cells) (Q99572 whole entry): as above

Consider `O=C(NCC1CCC(F)(F)CC1)c1cn(C[C@@H]2CCCN2)c2cccc(Cl)c12` [Compound 153, (S)-4-chloro-N-((4,4-difluorocyclohexyl)methyl)-1-(pyrrolidin-2-ylmethyl)-1H-indole-3-carboxamide], for which the IC50 is under 10 nM at human P2X7 receptor (setting [2]) and 10 to 100 nM in assay [1].
`O=C(NCC1CCC(F)(F)CC1)c1cn(CC2COCCN2)c2cccc(Cl)c12` (centres unmarked) [Compound 164, 4-chloro-N-((4,4-difluorocyclohexyl)methyl)-1-(morpholin-3-ylmethyl)-1H-indole-3-carboxamide]: the IC50 against human P2X7 receptor fell in the range of 101 to 500 nM; in assay [1] it was 10 to 100 nM.
In the case of `O=C(NCC1CCC(F)(F)CC1)c1cn(CC2CCCCO2)c2cccc(Cl)c12` (centres unmarked) [Compound 167, 4-chloro-N-((4,4-difluorocyclohexyl)methyl)-1-((tetrahydro-2H-pyran-2-yl)methyl)-1H-indole-3-carboxamide], the IC50 (against human P2X7 receptor; in assay [1]) was 10 to 100 nM each time.
As to `CC1(C)CCCC(O)(CNC(=O)c2cn(C3CCOC3)c3cccc(Cl)c23)C1` (centres unmarked) [Compound 107, 4-Chloro-1-(tetrahydro-furan-3-yl)-1H-indole-3-carboxylic acid (1-hydroxy-3,3-dimethyl-cyclohexylmethyl)-amide], the IC50 fell in the range of 10 to 100 nM on human P2X7 receptor and 101 to 500 nM in assay [1].
On the same counts, the results for `O=C(NCC1C[C@@H]2CC[C@H]1C2)c1cn(C2CCOC2)c2cccc(Cl)c12` (stereo partly drawn) [Compound 105, 4-Chloro-1-(tetrahydro-furan-3-yl)-1H-indole-3-carboxylic acid ((1S,4R)-1-bicyclo[2.2.1]hept-2-ylmethyl)-amide] are 10 to 100 nM and 101 to 500 nM.
With `CC1CCCC(O)(CNC(=O)c2cn(C3COC3)c3cccc(Cl)c23)C1` (centres unmarked) [Compound 83, 4-chloro-N-((1-hydroxy-3-methylcyclohexyl)methyl)-1-(oxetan-3-yl)-1H-indole-3-carboxamide], the IC50 at human P2X7 receptor (setting [2]) was under 10 nM; in assay [1], 10 to 100 nM.
Turning to `C[C@@H]1CCC[C@](O)(CNC(=O)c2cn(C3CCOC3)c3cccc(Cl)c23)C1` (stereo partly drawn) [Compound 113, 4-chloro-N-(((1R,3R)-1-hydroxy-3-methylcyclohexyl)methyl)-1-(tetrahydrofuran-3-yl)-1H-indole-3-carboxamide], the IC50 (against human P2X7 receptor; in assay [1]) was 10 to 100 nM in each case.
Turning to `O=C(NCC1CCC(F)(F)CC1)c1cn(CC(=O)N2CCC2)c2cccc(Cl)c12` [Compound 163], the IC50 at human P2X7 receptor (setting [2]) is under 10 nM; in assay [1] it was 10 to 100 nM.
As to `CN1C(=O)CC[C@@H]1Cn1cc(C(=O)NCC2CCC(F)(F)CC2)c2c(Cl)cccc21` [Compound 182, (R)-4-chloro-N-((4,4-difluorocyclohexyl)methyl)-1-((1-methyl-5-oxopyrrolidin-2-yl)methyl)-1H-indole-3-carboxamide], the IC50 (at human P2X7 receptor; in assay [1]) was 10 to 100 nM each time.
On to `COCCn1cc(C(=O)NC(CO)c2cccc(C(F)(F)F)c2Cl)c2c(Cl)cccc21` (centres unmarked) [Compound 32, 4-chloro-N-(1-(2-chloro-3-(trifluoromethyl)phenyl)-2-hydroxyethyl)-1-(2-methoxyethyl)-1H-indole-3-carboxamide], for which the IC50 on human P2X7 receptor (setting [2]) lay within 101 to 500 nM; in assay [1] (setting [3]), 500 to 999 nM.
Consider `COCCn1cc(C(=O)NCCc2cccs2)c2c(Cl)cccc21` [Compound 30, 4-Chloro-1-(2-methoxy-ethyl)-1H-indole-3-carboxylic acid (2-thiophen-2-yl-ethyl)-amide], for which the IC50 against human P2X7 receptor is 10 to 100 nM; in assay [1], 101 to 500 nM.
On the same counts, the results for `CCN(CC)C(=O)Cn1cc(C(=O)NCC2CCC(F)(F)CC2)c2c(Cl)cccc21` [Compound 207, 4-Chloro-1-diethylcarbamoylmethyl-1H-indole-3-carboxylic acid (4,4-difluoro-cyclohexylmethyl)-amide] are 10 to 100 nM and 101 to 500 nM.
On the same counts, the results for `CN1CCC[C@H]1Cn1cc(C(=O)NCC2(O)CCC(F)(F)CC2)c2c(Cl)cccc21` [Compound 169, (S)-4-chloro-N-((4,4-difluoro-1-hydroxycyclohexyl)methyl)-1-((1-methylpyrrolidin-2-yl)methyl)-1H-indole-3-carboxamide] are 10 to 100 nM and 10 to 100 nM.
Consider `C[C@@H]1CCC[C@](O)(CNC(=O)c2cn(CCC(F)F)c3cccc(Cl)c23)C1` [Compound 8, 4-Chloro-1-(3,3-difluoro-propyl)-1H-indole-3-carboxylic acid ((1R,3R)-1-hydroxy-3-methyl-cyclohexylmethyl)-amide], for which the IC50 on human P2X7 receptor fell in the range of 10 to 100 nM; in assay [1] it was 101 to 500 nM.
On the same counts, the results for `O=C(NCC1CCC(F)(F)CC1)c1cn(CC2CCCNC2)c2cccc(Cl)c12` (centres unmarked) [Compound 174, 4-chloro-N-((4,4-difluorocyclohexyl)methyl)-1-(piperidin-3-ylmethyl)-1H-indole-3-carboxamide] are 10 to 100 nM and 10 to 100 nM.
On the same counts, the results for `COCCn1cc(C(=O)NCC2(O)CCC(F)(F)CC2)c2c(Cl)cccc21` [Compound 40, 4-chloro-N-((4,4-difluoro-1-hydroxycyclohexyl)methyl)-1-(2-methoxyethyl)-1H-indole-3-carboxamide] are 10 to 100 nM and 10 to 100 nM.
As for `O=C(NCC1(O)CCC(F)(F)CC1)c1cn(C2CCCO2)c2cccc(Cl)c12` (centres unmarked) [Compound 98, 4-chloro-N-((4,4-difluoro-1-hydroxycyclohexyl)methyl)-1-(tetrahydrofuran-2-yl)-1H-indole-3-carboxamide], the IC50 (against human P2X7 receptor; in assay [1]) was 101 to 500 nM throughout.
In the case of `COCCn1cc(C(=O)NCCc2ccc(F)cc2Cl)c2c(Cl)cccc21` [Compound 34, 4-Chloro-1-(2-methoxy-ethyl)-1H-indole-3-carboxylic acid [2-(4-fluoro-2-chloro-phenyl)-ethyl]-amide], the IC50 (at human P2X7 receptor; in assay [1]) was 101 to 500 nM each time.
As to `COCCn1cc(C(=O)NCC2(O)CCCCC2O)c2c(Cl)cccc21` (centres unmarked) [Compound 18, 4-Chloro-1-(2-methoxy-ethyl)-1H-indole-3-carboxylic acid (1,2-dihydroxy-cyclohexylmethyl)-amide], the IC50 (on human P2X7 receptor (setting [2]); in assay [1] (setting [3])) was over 1000 nM in each case.
Turning to `O=C(NCC1CCC(F)(F)CC1)c1cn(CC2CCO2)c2cccc(Cl)c12` (centres unmarked) [Compound 116, 4-chloro-N-((4,4-difluorocyclohexyl)methyl)-1-(oxetan-2-ylmethyl)-1H-indole-3-carboxamide], the IC50 (against human P2X7 receptor; in assay [1]) was 10 to 100 nM each time.
For `O=C(NCC1(O)CCC(F)(F)CC1)c1cn(CCC(F)(F)F)c2cccc(Cl)c12` [Compound 12, 4-chloro-N-((4,4-difluoro-1-hydroxycyclohexyl)methyl)-1-(3,3,3-trifluoropropyl)-1H-indole-3-carboxamide], the IC50 lay within 101 to 500 nM at human P2X7 receptor and 500 to 999 nM in assay [1].
On the same counts, the results for `CC(C)OCCn1cc(C(=O)NCC2CCC(F)(F)CC2)c2c(Cl)cccc21` [Compound 128] are 101 to 500 nM and 101 to 500 nM.
On the same counts, the results for `O=C(NC[C@H]1CCCC(F)(F)C1)c1cn(C2COC2)c2cccc(Cl)c12` [Compound 67, 4-chloro-N—(((S)-3,3-difluorocyclohexyl)methyl)-1-(oxetan-3-yl)-1H-indole-3-carboxamide] are 10 to 100 nM and 10 to 100 nM.
On the same counts, the results for `C[C@@H](NC(=O)c1cn(C2CCOC2)c2cccc(Cl)c12)C1C[C@H]2CC[C@@H]1C2` (stereo partly drawn) [Compound 109, 4-Chloro-1-(tetrahydro-furan-3-yl)-1H-indole-3-carboxylic acid ((1R,4S)-1-bicyclo[2.2.1]hept-2-yl-ethyl)-amide] are 101 to 500 nM and 500 to 999 nM.
`O=C(NCC1(O)CCC(F)(F)CC1)c1cn(CC2CCCCO2)c2cccc(Cl)c12` (centres unmarked) [Compound 166, 4-chloro-N-((4,4-difluoro-1-hydroxycyclohexyl)methyl)-1-((tetrahydro-2H-pyran-2-yl)methyl)-1H-indole-3-carboxamide]: the IC50 (at human P2X7 receptor; in assay [1]) was 10 to 100 nM in each case.
Consider `COCCn1cc(C(=O)NC[C@@]2(O)CCCC(F)(F)C2)c2c(Cl)cccc21` [Compound 21, (R)-4-chloro-N-((3,3-difluoro-1-hydroxycyclohexyl)methyl)-1-(2-methoxyethyl)-1H-indole-3-carboxamide], for which the figures for the IC50 (at human P2X7 receptor (setting [2]); in assay [1]) were under 10 nM and 10 to 100 nM, respectively.
Regarding `C[C@H]1CCC[C@@](O)(CNC(=O)c2cn(CC3CCCO3)c3cccc(Cl)c23)C1` (stereo partly drawn) [Compound 140, 4-chloro-N-(((1S,3S)-1-hydroxy-3-methylcyclohexyl)methyl)-1-((tetrahydrofuran-2-yl)methyl)-1H-indole-3-carboxamide], the IC50 (on human P2X7 receptor; in assay [1]) was 10 to 100 nM in each case.
Turning to `O=C(NCC1CCC(F)(F)CC1)c1cn(CCN2CCCC2)c2cccc(Cl)c12` [Compound 179, 4-chloro-N-((4,4-difluorocyclohexyl)methyl)-1-(2-(pyrrolidin-1-yl)ethyl)-1H-indole-3-carboxamide], the IC50 (against human P2X7 receptor; in assay [1]) was 101 to 500 nM each time.
